Results taken from the NIST ThermoML archive (doi:10.1016/j.jct.2011.10.027).

Experiment: xn = mol fraction of the nth substance listed
Details: 101 kPa, Liquid, Vibrating tube method

CCCCN(CCCC)CCCC [tributylamine] + Cc1ccccc1C
mass density [kg/m3]
Details | 293.15 K | 298.15 K | 303.15 K | 313.15 K | 323.15 K | 333.15 K
x1 = 0.0762 | 865.26 | 861.1 | 856.94 | 848.59 | 840.19 | 831.72
x1 = 0.1611 | 851.26 | 847.17 | 843.07 | 834.83 | 826.55 | 818.19
x1 = 0.2324 | 840.99 | 836.94 | 832.88 | 824.73 | 816.54 | 808.28
x1 = 0.3142 | 830.6 | 826.6 | 822.59 | 814.54 | 806.44 | 798.29
x1 = 0.3986 | 821.15 | 817.19 | 813.22 | 805.26 | 797.25 | 789.19
x1 = 0.481 | 812.95 | 809.03 | 805.1 | 797.21 | 789.28 | 781.29
x1 = 0.5686 | 805.17 | 801.29 | 797.4 | 789.61 | 781.76 | 773.87
x1 = 0.6368 | 799.67 | 795.83 | 791.97 | 784.23 | 776.45 | 768.61
x1 = 0.7145 | 793.98 | 790.16 | 786.34 | 778.66 | 770.94 | 763.17
x1 = 0.769 | 790.27 | 786.47 | 782.67 | 775.03 | 767.36 | 759.64
x1 = 0.8741 | 783.74 | 779.98 | 776.21 | 768.65 | 761.06 | 753.41
x1 = 0.9545 | 779.3 | 775.56 | 771.81 | 764.3 | 756.75 | 749.14

CCCCN(CCCC)CCCC [tributylamine] + Cc1ccc(C)cc1
mass density [kg/m3]
Details | 293.15 K | 298.15 K | 303.15 K | 313.15 K | 323.15 K | 333.15 K
x1 = 0.0834 | 848.23 | 843.97 | 839.71 | 831.14 | 822.53 | 813.86
x1 = 0.1617 | 837.85 | 833.67 | 829.48 | 821.06 | 812.59 | 804.05
x1 = 0.2416 | 828.6 | 824.47 | 820.35 | 812.06 | 803.72 | 795.32
x1 = 0.3196 | 820.59 | 816.53 | 812.46 | 804.29 | 796.06 | 787.79
x1 = 0.3984 | 813.4 | 809.38 | 805.37 | 797.3 | 789.19 | 781.03
x1 = 0.482 | 806.6 | 802.64 | 798.67 | 790.72 | 782.71 | 774.64
x1 = 0.56 | 800.89 | 796.97 | 793.04 | 785.17 | 777.26 | 769.29
x1 = 0.633 | 796.02 | 792.14 | 788.26 | 780.46 | 772.62 | 764.73
x1 = 0.7229 | 790.59 | 786.75 | 782.91 | 775.2 | 767.45 | 759.65
x1 = 0.7717 | 787.86 | 784.05 | 780.24 | 772.57 | 764.86 | 757.1
x1 = 0.878 | 782.45 | 778.68 | 774.9 | 767.33 | 759.71 | 752.04
x1 = 0.9458 | 779.3 | 775.56 | 771.81 | 764.28 | 756.72 | 749.1
